Laboratory results published in article PMC5218480 (PLoS ONE, 2017).

System: MV-4-11 cells
Experiment: Gene expression microarray analysis (Affymetrix PrimeView) and GSEA
Type: cell-based, human
Set-up: RFU PODN (11730768_x_at) / Fold change /veh PODN (11730768_x_at) / RFU LINC00158 (11744669_a_at) / Fold change /veh LINC00158 (11744669_a_at) / RFU DUSP10 (11751237_a_at) / Fold change /veh DUSP10 (11751237_a_at) / RFU ID3 (11757404_x_at) / Fold change /veh ID3 (11757404_x_at) / RFU PLEKHG5 (11737974_s_at) / Fold change /veh PLEKHG5 (11737974_s_at) / RFU LRRC4B (11730491_at) / Fold change /veh LRRC4B (11730491_at) / RFU GIMAP4 (11747438_a_at) / Fold change /veh GIMAP4 (11747438_a_at) / RFU KRT8 (11758183_x_at) / Fold change /veh KRT8 (11758183_x_at) / RFU CNN1 (11734310_a_at) / Fold change /veh CNN1 (11734310_a_at) / RFU VPS37D (11726825_at) / Fold change /veh VPS37D (11726825_at) / RFU C10orf10 (11716522_x_at) / Fold change /veh C10orf10 (11716522_x_at) / RFU KIR2DL2 /// KIR2DL4 /// KIR2DL5A /// KIR2DL5B /// KIR2DS1 /// KIR2DS2 /// KIR2DS3 /// KIR2DS4 /// KIR3DL3 /// KIR3DL3 /// KIR3DS1 (11738374_at) / Fold change /veh KIR2DL2 /// KIR2DL4 /// KIR2DL5A /// KIR2DL5B /// KIR2DS1 /// KIR2DS2 /// KIR2DS3 /// KIR2DS4 /// KIR3DL3 /// KIR3DL3 /// KIR3DS1 (11738374_at) / RFU C1QL1 (11718748_at) / Fold change /veh C1QL1 (11718748_at) / RFU TMPRSS4 (11747572_a_at) / Fold change /veh TMPRSS4 (11747572_a_at) / RFU HAMP (11756126_x_at) / Fold change /veh HAMP (11756126_x_at) / RFU RNFT2 (11725882_a_at) / Fold change /veh RNFT2 (11725882_a_at) / RFU NR4A2 (11747474_a_at) / Fold change /veh NR4A2 (11747474_a_at) / RFU ABCC12 (11746883_a_at) / Fold change /veh ABCC12 (11746883_a_at) / RFU TMEM136 (11760407_x_at) / Fold change /veh TMEM136 (11760407_x_at) / RFU CLDN22 /// WWC2 (11732394_at) / Fold change /veh CLDN22 /// WWC2 (11732394_at) / RFU HLA-DPB1 (11760878_x_at) / Fold change /veh HLA-DPB1 (11760878_x_at) / RFU SPINT1 (11716480_a_at) / Fold change /veh SPINT1 (11716480_a_at) / RFU GAP43 (11754022_s_at) / Fold change /veh GAP43 (11754022_s_at) / RFU A4GNT (11735810_at) / Fold change /veh A4GNT (11735810_at) / RFU PRB3 (11715151_x_at) / Fold change /veh PRB3 (11715151_x_at) / RFU TUBB4B (11761932_at) / Fold change /veh TUBB4B (11761932_at) / RFU CAPN14 (11732068_a_at) / Fold change /veh CAPN14 (11732068_a_at) / RFU TMCC2 (11721928_a_at) / Fold change /veh TMCC2 (11721928_a_at) / RFU IRGQ (11745062_a_at) / Fold change /veh IRGQ (11745062_a_at) / RFU FAM174B (11720279_a_at) / Fold change /veh FAM174B (11720279_a_at) / RFU TMPRSS4 (11748680_a_at) / Fold change /veh TMPRSS4 (11748680_a_at) / RFU FAM212B (11763350_a_at) / Fold change /veh FAM212B (11763350_a_at) / RFU PLEKHG5 (11743358_a_at) / Fold change /veh PLEKHG5 (11743358_a_at) / RFU ZSCAN30 (11745921_a_at) / Fold change /veh ZSCAN30 (11745921_a_at) / RFU CMKLR1 (11741424_a_at) / Fold change /veh CMKLR1 (11741424_a_at) / RFU LOC101060620 /// MAPK8IP1 (11723275_at) / Fold change /veh LOC101060620 /// MAPK8IP1 (11723275_at) / RFU SPTSSB (11747773_x_at) / Fold change /veh SPTSSB (11747773_x_at) / RFU PRSS12 (11739890_at) / Fold change /veh PRSS12 (11739890_at) / RFU BIN1 (11741810_x_at) / Fold change /veh BIN1 (11741810_x_at) / RFU WNT11 (11732464_a_at) / Fold change /veh WNT11 (11732464_a_at) / RFU C10orf10 (11716521_a_at) / Fold change /veh C10orf10 (11716521_a_at) / RFU C5orf56 (11738089_at) / Fold change /veh C5orf56 (11738089_at) / RFU CYB561 (11721691_x_at) / Fold change /veh CYB561 (11721691_x_at) / RFU ANKRD19P (11752326_a_at) / Fold change /veh ANKRD19P (11752326_a_at) / RFU OR2T12 /// OR2T33 /// OR2T8 (11738714_s_at) / Fold change /veh OR2T12 /// OR2T33 /// OR2T8 (11738714_s_at) / RFU VCAN (11748164_a_at) / Fold change /veh VCAN (11748164_a_at) / RFU JSRP1 (11732532_at) / Fold change /veh JSRP1 (11732532_at) / RFU KRTAP10-11 (11738290_x_at) / Fold change /veh KRTAP10-11 (11738290_x_at) / RFU MYO3A (11730013_a_at) / Fold change /veh MYO3A (11730013_a_at) / RFU EBF3 (11725865_a_at) / Fold change /veh EBF3 (11725865_a_at) / RFU CAMK2N1 (11719241_x_at) / Fold change /veh CAMK2N1 (11719241_x_at) / RFU C5orf56 (11738088_a_at) / Fold change /veh C5orf56 (11738088_a_at) / RFU OLFML3 (11715873_a_at) / Fold change /veh OLFML3 (11715873_a_at) / RFU LOC100653217 /// NTM (11731650_a_at) / Fold change /veh LOC100653217 /// NTM (11731650_a_at) / RFU MAPK11 (11762145_a_at) / Fold change /veh MAPK11 (11762145_a_at) / RFU FIZ1 (11724087_x_at) / Fold change /veh FIZ1 (11724087_x_at) / RFU OASL (11726364_x_at) / Fold change /veh OASL (11726364_x_at) / RFU SOX15 (11748057_x_at) / Fold change /veh SOX15 (11748057_x_at) / RFU CD79A (11719716_a_at) / Fold change /veh CD79A (11719716_a_at) / RFU HIST1H1D (11736915_at) / Fold change /veh HIST1H1D (11736915_at) / RFU CASKIN2 (11723855_a_at) / Fold change /veh CASKIN2 (11723855_a_at) / RFU LOC730098 (11760151_x_at) / Fold change /veh LOC730098 (11760151_x_at) / RFU OR4N2 (11742367_at) / Fold change /veh OR4N2 (11742367_at) / RFU PRRT2 (11749266_a_at) / Fold change /veh PRRT2 (11749266_a_at) / RFU SNX32 (11753110_a_at) / Fold change /veh SNX32 (11753110_a_at) / RFU CDHR5 (11726645_a_at) / Fold change /veh CDHR5 (11726645_a_at) / RFU RCAN1 (11760418_a_at) / Fold change /veh RCAN1 (11760418_a_at) / RFU FAM167A (11723789_a_at) / Fold change /veh FAM167A (11723789_a_at) / RFU FAM26E (11764081_at) / Fold change /veh FAM26E (11764081_at) / RFU ISYNA1 (11749810_s_at) / Fold change /veh ISYNA1 (11749810_s_at) / RFU ACY1 (11761880_at) / Fold change /veh ACY1 (11761880_at) / RFU 11764098_at / Fold change /veh 11764098_at / RFU SAMD14 (11745864_x_at) / Fold change /veh SAMD14 (11745864_x_at) / RFU NPB (11741838_a_at) / Fold change /veh NPB (11741838_a_at) / RFU TMPRSS6 (11731388_a_at) / Fold change /veh TMPRSS6 (11731388_a_at) / RFU KRTAP10-2 (11738614_at) / Fold change /veh KRTAP10-2 (11738614_at) / RFU ARHGAP8 /// PRR5-ARHGAP8 (11727945_x_at) / Fold change /veh ARHGAP8 /// PRR5-ARHGAP8 (11727945_x_at) / RFU KRTAP5-7 /// NADSYN1 (11734609_at) / Fold change /veh KRTAP5-7 /// NADSYN1 (11734609_at) / RFU RASL12 (11751679_a_at) / Fold change /veh RASL12 (11751679_a_at) / RFU CDKN2B (11736163_a_at) / Fold change /veh CDKN2B (11736163_a_at) / RFU PRF1 (11729649_at) / Fold change /veh PRF1 (11729649_at) / RFU, ZNF638 /// ZNF638-IT1 / Fold change vs veh, ZNF638 /// ZNF638-IT1 / RFU, PANK3 / Fold change vs veh, PANK3 / RFU, SH3YL1 / Fold change vs veh, SH3YL1 / RFU, ZEB2 / Fold change vs veh, ZEB2 / RFU, NRIP1 / Fold change vs veh, NRIP1 / RFU, PTTG1IP / Fold change vs veh, PTTG1IP / RFU, CAPN2 / Fold change vs veh, CAPN2 / RFU, MED14 / Fold change vs veh, MED14 / RFU, SNORA58 / Fold change vs veh, SNORA58 / RFU, C1orf63 / Fold change vs veh, C1orf63 / RFU, LRRFIP1 / Fold change vs veh, LRRFIP1 / RFU, NDUFAF7 / Fold change vs veh, NDUFAF7 / RFU, SLC12A2 / Fold change vs veh, SLC12A2 / RFU, IBTK / Fold change vs veh, IBTK / RFU, ESF1 / Fold change vs veh, ESF1 / Fold change vs veh, TMEM50B / RFU, TAOK1 / Fold change vs veh, TAOK1 / RFU, ACBD3 / Fold change vs veh, ACBD3 / RFU, TMA16 / Fold change vs veh, TMA16 / RFU, RWDD3 / Fold change vs veh, RWDD3 / RFU, BCAT1 / Fold change vs veh, BCAT1 / RFU, EDEM3 / Fold change vs veh, EDEM3 / RFU, TMEM33 / Fold change vs veh, TMEM33 / RFU, WDR75 / Fold change vs veh, WDR75 / RFU, AHCTF1 / Fold change vs veh, AHCTF1 / RFU, TFRC / Fold change vs veh, TFRC / RFU, ZDHHC17 / Fold change vs veh, ZDHHC17 / RFU, NOM1 / Fold change vs veh, NOM1 / RFU, ARL8B / Fold change vs veh, ARL8B / RFU, ZBTB11 / Fold change vs veh, ZBTB11 / RFU, TAMM41 / Fold change vs veh, TAMM41 / RFU, KIAA1704 /// LOC100996395 / Fold change vs veh, KIAA1704 /// LOC100996395 / RFU, ING1 / Fold change vs veh, ING1 / RFU, TRMT61B / Fold change vs veh, TRMT61B / RFU, FUBP3 / Fold change vs veh, FUBP3 / RFU, TP53 / Fold change vs veh, TP53 / RFU, TNKS2 / Fold change vs veh, TNKS2 / RFU, ZFP14 / Fold change vs veh, ZFP14 / RFU, ACTR2 / Fold change vs veh, ACTR2 / RFU, PPP3R1 / Fold change vs veh, PPP3R1 / RFU, PIK3R1 / Fold change vs veh, PIK3R1 / RFU, HNRNPA1 / Fold change vs veh, HNRNPA1 / RFU, RNF170 / Fold change vs veh, RNF170 / RFU, ZNF28 / Fold change vs veh, ZNF28 / RFU, RNGTT / Fold change vs veh, RNGTT / RFU, OGT / Fold change vs veh, OGT / RFU, BRD1 / Fold change vs veh, BRD1 / RFU, MARS / Fold change vs veh, MARS / RFU, ZNF655 / Fold change vs veh, ZNF655 / RFU, FAHD1 / Fold change vs veh, FAHD1 / RFU, BDP1 / Fold change vs veh, BDP1 / RFU, LRRCC1 / Fold change vs veh, LRRCC1 / RFU, ARID1A / Fold change vs veh, ARID1A / RFU, ZNF146 / Fold change vs veh, ZNF146 / RFU, ZNF330 / Fold change vs veh, ZNF330 / RFU, GPN3 / Fold change vs veh, GPN3 / RFU, C9orf123 / Fold change vs veh, C9orf123 / RFU, N4BP2L2 / Fold change vs veh, N4BP2L2 / RFU, ARFIP1 / Fold change vs veh, ARFIP1 / RFU, FAM179B / Fold change vs veh, FAM179B / RFU, BCL10 / Fold change vs veh, BCL10 / RFU, UHRF1BP1L / Fold change vs veh, UHRF1BP1L / RFU, BET1 / Fold change vs veh, BET1 / RFU, CNOT2 / Fold change vs veh, CNOT2 / RFU, ZNF268 / Fold change vs veh, ZNF268 / Fold change vs veh, ZNF507 / RFU, DGCR2 / Fold change vs veh, DGCR2 / RFU, WDSUB1 / Fold change vs veh, WDSUB1 / Fold change vs veh, HSP90B1 /// MIR3652 / RFU, ADSS / Fold change vs veh, ADSS / RFU, GK / Fold change vs veh, GK / RFU, ZNF148 / Fold change vs veh, ZNF148 / RFU, TAF9 / Fold change vs veh, TAF9 / RFU, SLC1A5 / Fold change vs veh, SLC1A5 / RFU, SLMO2 / Fold change vs veh, SLMO2 / RFU, ABCC4 / Fold change vs veh, ABCC4 / RFU, LOC101060439 /// RAP1B / Fold change vs veh, LOC101060439 /// RAP1B / RFU, RFX7 / Fold change vs veh, RFX7 / RFU, GTPBP10 / Fold change vs veh, GTPBP10 / RFU, CNEP1R1 / Fold change vs veh, CNEP1R1 / RFU, BIVM-ERCC5 /// ERCC5 / Fold change vs veh, BIVM-ERCC5 /// ERCC5 / RFU, ILF3 / Fold change vs veh, ILF3 / RFU 11762660_at / Fold change /veh 11762660_at / RFU VCAN (11757783_s_at) / Fold change /veh VCAN (11757783_s_at) / RFU DDX43 (11728927_at) / Fold change /veh DDX43 (11728927_at) / RFU KRT8 (11758188_x_at) / Fold change /veh KRT8 (11758188_x_at) / RFU NKD1 (11759106_at) / Fold change /veh NKD1 (11759106_at) / RFU SRD5A1 (11742802_a_at) / Fold change /veh SRD5A1 (11742802_a_at) / RFU TPSAB1 /// TPSB2 (11721975_s_at) / Fold change /veh TPSAB1 /// TPSB2 (11721975_s_at) / RFU GSTM3 (11746129_a_at) / Fold change /veh GSTM3 (11746129_a_at) / RFU IL23R (11737362_x_at) / Fold change /veh IL23R (11737362_x_at) / RFU TMEM51 (11727254_a_at) / Fold change /veh TMEM51 (11727254_a_at) / RFU PIWIL2 (11732686_x_at) / Fold change /veh PIWIL2 (11732686_x_at) / RFU ORM1 (11744905_x_at) / Fold change /veh ORM1 (11744905_x_at) / RFU CCDC152 (11743942_at) / Fold change /veh CCDC152 (11743942_at) / RFU ECM1 (11717891_a_at) / Fold change /veh ECM1 (11717891_a_at) / RFU IL23R (11748794_a_at) / Fold change /veh IL23R (11748794_a_at) / RFU TNFAIP8L3 (11732012_x_at) / Fold change /veh TNFAIP8L3 (11732012_x_at) / RFU MBOAT4 (11741988_at) / Fold change /veh MBOAT4 (11741988_at) / RFU 11764193_at / Fold change /veh 11764193_at / RFU TMEM53 (11763286_at) / Fold change /veh TMEM53 (11763286_at) / RFU MAGEB2 (11727129_at) / Fold change /veh MAGEB2 (11727129_at) / RFU TMEM200A (11744735_a_at) / Fold change /veh TMEM200A (11744735_a_at) / RFU CCDC152 (11751479_a_at) / Fold change /veh CCDC152 (11751479_a_at) / RFU FAM211A (11726209_a_at) / Fold change /veh FAM211A (11726209_a_at) / RFU RGS16 (11746705_a_at) / Fold change /veh RGS16 (11746705_a_at) / RFU VCAN (11755009_s_at) / Fold change /veh VCAN (11755009_s_at) / RFU RHOB (11743442_s_at) / Fold change /veh RHOB (11743442_s_at) / RFU RGS16 (11720943_a_at) / Fold change /veh RGS16 (11720943_a_at) / RFU RGS16 (11720944_at) / Fold change /veh RGS16 (11720944_at) / RFU, VPS4B / Fold change vs veh, VPS4B / RFU, CREB1 / Fold change vs veh, CREB1 / RFU, DNAJC13 / Fold change vs veh, DNAJC13 / RFU, GNAQ / Fold change vs veh, GNAQ / RFU, CDK5R1 / Fold change vs veh, CDK5R1 / RFU, ZRANB3 / Fold change vs veh, ZRANB3 / RFU, CUL4A / Fold change vs veh, CUL4A / RFU, CCNY / Fold change vs veh, CCNY / RFU, UFL1 / Fold change vs veh, UFL1 / RFU, COG3 / Fold change vs veh, COG3 / RFU, DIAPH2 / Fold change vs veh, DIAPH2 / RFU, SKA2 / Fold change vs veh, SKA2 / RFU, AFF3 / Fold change vs veh, AFF3 / RFU, LMF1 / Fold change vs veh, LMF1 / RFU, IPO11 / Fold change vs veh, IPO11 / RFU, DFFB / Fold change vs veh, DFFB / RFU, FOXP1 / Fold change vs veh, FOXP1 / RFU, CARD8 / Fold change vs veh, CARD8 / RFU, STRN3 / Fold change vs veh, STRN3 / RFU, ADK / Fold change vs veh, ADK / RFU, RASSF2 / Fold change vs veh, RASSF2 / RFU, WIPF1 / Fold change vs veh, WIPF1 / RFU, LARP1B / Fold change vs veh, LARP1B / RFU, RASA1 / Fold change vs veh, RASA1 / RFU, RB1 / Fold change vs veh, RB1 / RFU, PPFIA1 / Fold change vs veh, PPFIA1 / RFU, MAT2A / Fold change vs veh, MAT2A / RFU, CCT5 / Fold change vs veh, CCT5 / RFU, WDR92 / Fold change vs veh, WDR92 / RFU, CUX1 / Fold change vs veh, CUX1 / RFU, TTC7A / Fold change vs veh, TTC7A / RFU, TMEM135 / Fold change vs veh, TMEM135 / RFU, DEPTOR / Fold change vs veh, DEPTOR / RFU, CPM / Fold change vs veh, CPM / RFU, DNAJB6 / Fold change vs veh, DNAJB6 / RFU, CACNA2D3 / Fold change vs veh, CACNA2D3 / RFU, DTX4 / Fold change vs veh, DTX4 / RFU, TFCP2 / Fold change vs veh, TFCP2 / RFU, GMCL1 /// GMCL1P1 / Fold change vs veh, GMCL1 /// GMCL1P1 / RFU, AEBP2 / Fold change vs veh, AEBP2 / RFU, SNHG1 /// SNORD22 /// SNORD25 /// SNORD26 /// SNORD27 /// SNORD28 /// SNORD29 /// SNORD31 / Fold change vs veh, SNHG1 /// SNORD22 /// SNORD25 /// SNORD26 /// SNORD27 /// SNORD28 /// SNORD29 /// SNORD31 / Fold change (Aza/veh), C12orf56 (ProbeSet 11735607_a_at) / Fold change (ACY-1035/veh), C12orf56 (ProbeSet 11735607_a_at) / Fold change (Aza/veh), FGFR1OP (ProbeSet 11751329_s_at) / Fold change (ACY-1035/veh), FGFR1OP (ProbeSet 11751329_s_at) / Fold change (Aza/veh), VPS36 (ProbeSet 11739960_a_at) / Fold change (ACY-1035/veh), VPS36 (ProbeSet 11739960_a_at) / RFU SYPL1 (11715823_x_at) / Fold change /veh SYPL1 (11715823_x_at) / RFU IGFBP7 (11715501_s_at) / Fold change /veh IGFBP7 (11715501_s_at) / RFU REEP3 (11722064_at) / Fold change /veh REEP3 (11722064_at) / RFU IGLL1 (11728026_x_at) / Fold change /veh IGLL1 (11728026_x_at): dose or concentration left out as unconfirmed
Settings: ProbeSet 11723944_a_at; LIST B

SMILES: Nc1ncn([C@@H]2O[C@H](CO)[C@@H](O)[C@H]2O)c(=O)n1 [azacitidine]
- Fold change vs veh, PTTG1IP: 0.86
